Laboratory results as given in US20080146669A1, “Novel Chloride Channel Pore Openers” (THE UAB RESEARCH FOUNDATION, priority 2005, published 2008).

Assays:
wild-type CFTR [1] = biological target: T1, wild-type CFTR (Homo sapiens, UniProt P13569); test: Macroscopic currents in excised patches from wild-type CFTR-transfected HEK-293T cells; assay type: biochemical; set-up: expressed in transfected cells; host or cells: HEK-293T, transient (Lipofectamine); conditions: 10 μM; 1.5 mM Mg-ATP and 110 U/ml PKA
Experimental: (§1) Cell culture DNA constructs and transfections. Baby hamster kidney (BHK) cells stably expressing wild type human CFTR (BHK-CFTR) were provided by J. Hanrahan (McGill University). BHK-CFTR cells were cultured in Dulbecco's modified Eagle's medium (DMEM (Mediatech)) supplemented with 5% fetal bovine serum (FBS) and 1 mM penicillin-streptomycin. The growth media for the BHK-CFTR cells also contained 0.5 mM methotrexate to maintain selection for CFTR-expressing cells (22). HEK-293T cells were transiently transfected with wild-type or mutant CFTR cDNA using the Lipofectamine transfection kit following manufacturer's recommendations (Invitrogen, Corp). HEK-293T cells were cultured in DMEM. All cells were grown on plastic coverslips for patch clamp recording and were used 2-3 days post-seeding. Electrophysiology and data analysis. Macroscopic and multi-channel currents were recorded in the excised, inside-out configuration. Patch pipettes were pulled from Corning 8161 glass to tip resistances of […] (macroscopic recordings) or 8-10 mOhm (micropatch studies). CFTR channels were activated following patch excision by exposure of the cytoplasmic face of the patch to catalytic subunit of protein kinase A (PKA; 110 U/ml; Promega) and Mg-ATP (1.5 mM). CFTR currents were recorded in symmetrical solution containing (in mM): 140 N-methyl-D-glucaniine-Cl, 3 MgCl2, 1 EGTA and 10 TES. […]

G551D-CFTR = biological target: T2, G551D-CFTR (Homo sapiens, UniProt P13569, G551D); test: Macroscopic currents in excised patches from HEK-293T cells expressing G551D-CFTR; assay type: biochemical; conditions: 10 μM
T2 construct: expressed in transfected cells; host or cells: HEK-293T, transient
Experimental: as §1, with “TES. The pH was adjusted to 7.3. Macroscopic currents were evoked using a ramp protocol from +80 to −80 mV with a 10 sec time period. Patches were held at −80 mV or +80 mV for micropatch (multichannel) recordings. All patch clamp experiments were performed at 21-23° C. Signals from macroscopic and single channel recording were filtered at 20 and 200 Hz, respectively. Data acquisition and analysis were performed using pCLAMP8 and pCLAMP9 software (Axon Instruments). Curve fitting for kinetic analysis was performed using Microcal Origin software. Averaged data are presented as mean +/−SEM. Statistical comparisons were made by performing unpaired t-tests unless otherwise indicated.” for “TES.”

ΔF508-CFTR = biological target: T3, ΔF508-CFTR (Homo sapiens, UniProt P13569, DEL508-508); test: Ussing chamber transepithelial chloride currents, temperature-corrected ΔF508-CFTR CFBE41o- monolayers; assay type: cell-based
T3 construct: expressed in transfected cells; host or cells: HEK-293T, transient; grown at 28° C. for 24 hrs
Experimental: Cell culture DNA constructs and transfections. Baby hamster kidney (BHK) cells stably expressing wild type human CFTR (BHK-CFTR) were provided by J. Hanrahan (McGill University). BHK-CFTR cells were cultured in Dulbecco's modified Eagle's medium (DMEM (Mediatech)) supplemented with 5% fetal bovine serum (FBS) and 1 mM penicillin-streptomycin. The growth media for the BHK-CFTR cells also contained 0.5 mM methotrexate to maintain selection for CFTR-expressing cells (22). HEK-293T cells were transiently transfected with wild-type or mutant CFTR cDNA using the Lipofectamine transfection kit following manufacturer's recommendations (Invitrogen, Corp). HEK-293T cells were cultured in DMEM. All cells were grown on plastic coverslips for patch clamp recording and were used 2-3 days post-seeding. Electrophysiology and data analysis. Macroscopic and multi-channel currents were recorded in the excised, inside-out configuration. Patch pipettes were pulled from Corning 8161 glass to tip resistances of […] (macroscopic recordings) or 8-10 mOhm (micropatch studies). CFTR channels were activated following patch excision by exposure of the cytoplasmic face of the patch to catalytic subunit of protein kinase A (PKA; 110 U/ml; Promega) and Mg-ATP (1.5 mM). CFTR currents were recorded in symmetrical solution containing (in mM): 140 N-methyl-D-glucaniine-Cl, 3 MgCl2, 1 EGTA and 10 TES. The pH was adjusted to 7.3. Macroscopic currents were evoked using a ramp protocol from +80 to −80 mV with a 10 sec time period. Patches were held at −80 mV or +80 mV for micropatch (multichannel) recordings. All patch clamp experiments were performed at 21-23° C. Signals from macroscopic and single channel recording were filtered at 20 and 200 Hz, respectively. Data acquisition and analysis were performed using pCLAMP8 and pCLAMP9 software (Axon Instruments). Curve fitting for kinetic analysis was performed using Microcal Origin software. Averaged data are presented as mean +/−SEM. Statistical comparisons were made by performing unpaired t-tests unless otherwise indicated. Ussing Chamber Experiments-CFBE41o epithelial cells stably transfected with ΔF508-CFTR or transiently transfected with wild-type CFTR were cultured as electrically resistive monolayers and assayed in Ussing chambers as described (16). ΔF508-CFTR-expressing monolayers were grown at 27° C. for 2-3 days to enhance the surface expression of this temperature-sensitive mutant. A serosal-to-mucosal Cl^− gradient (120 to 1.2 mM) was imposed, followed by amiloride addition (100 μM) to block Na^+ currents. Compounds were added to both chambers at the indicated concentrations. A 3-mV voltage pulse was imposed every 100 s to monitor transepithelial resistance.

AR-S660A-CFTR = biological target: T4, AR-S660A-CFTR (Homo sapiens, UniProt P13569, DEL708-835/S660A); test: Macroscopic currents in excised HEK-293T patches, R domain deletion mutant, no PKA; assay type: biochemical; conditions: 10 μM
T4 construct: expressed in transfected cells; host or cells: HEK-293T, transient
Experimental: as §1

wild-type CFTR [2] = biological target: T1, wild-type CFTR; test: Ussing chamber transepithelial chloride currents, wild type CFTR-expressing CFBE41o- monolayers; assay type: cell-based; set-up: expressed in transfected cells; host or cells: HEK-293T, transient (Lipofectamine); conditions: 120 nM to 12 μM
Experimental: as §1

[3] = Solubility limit on achievable dose; assay type: physicochemical; conditions: 200-400 μM doses impossible to achieve

T3 sequence (P13569 with tags, fused parts or gaps DEL508-508): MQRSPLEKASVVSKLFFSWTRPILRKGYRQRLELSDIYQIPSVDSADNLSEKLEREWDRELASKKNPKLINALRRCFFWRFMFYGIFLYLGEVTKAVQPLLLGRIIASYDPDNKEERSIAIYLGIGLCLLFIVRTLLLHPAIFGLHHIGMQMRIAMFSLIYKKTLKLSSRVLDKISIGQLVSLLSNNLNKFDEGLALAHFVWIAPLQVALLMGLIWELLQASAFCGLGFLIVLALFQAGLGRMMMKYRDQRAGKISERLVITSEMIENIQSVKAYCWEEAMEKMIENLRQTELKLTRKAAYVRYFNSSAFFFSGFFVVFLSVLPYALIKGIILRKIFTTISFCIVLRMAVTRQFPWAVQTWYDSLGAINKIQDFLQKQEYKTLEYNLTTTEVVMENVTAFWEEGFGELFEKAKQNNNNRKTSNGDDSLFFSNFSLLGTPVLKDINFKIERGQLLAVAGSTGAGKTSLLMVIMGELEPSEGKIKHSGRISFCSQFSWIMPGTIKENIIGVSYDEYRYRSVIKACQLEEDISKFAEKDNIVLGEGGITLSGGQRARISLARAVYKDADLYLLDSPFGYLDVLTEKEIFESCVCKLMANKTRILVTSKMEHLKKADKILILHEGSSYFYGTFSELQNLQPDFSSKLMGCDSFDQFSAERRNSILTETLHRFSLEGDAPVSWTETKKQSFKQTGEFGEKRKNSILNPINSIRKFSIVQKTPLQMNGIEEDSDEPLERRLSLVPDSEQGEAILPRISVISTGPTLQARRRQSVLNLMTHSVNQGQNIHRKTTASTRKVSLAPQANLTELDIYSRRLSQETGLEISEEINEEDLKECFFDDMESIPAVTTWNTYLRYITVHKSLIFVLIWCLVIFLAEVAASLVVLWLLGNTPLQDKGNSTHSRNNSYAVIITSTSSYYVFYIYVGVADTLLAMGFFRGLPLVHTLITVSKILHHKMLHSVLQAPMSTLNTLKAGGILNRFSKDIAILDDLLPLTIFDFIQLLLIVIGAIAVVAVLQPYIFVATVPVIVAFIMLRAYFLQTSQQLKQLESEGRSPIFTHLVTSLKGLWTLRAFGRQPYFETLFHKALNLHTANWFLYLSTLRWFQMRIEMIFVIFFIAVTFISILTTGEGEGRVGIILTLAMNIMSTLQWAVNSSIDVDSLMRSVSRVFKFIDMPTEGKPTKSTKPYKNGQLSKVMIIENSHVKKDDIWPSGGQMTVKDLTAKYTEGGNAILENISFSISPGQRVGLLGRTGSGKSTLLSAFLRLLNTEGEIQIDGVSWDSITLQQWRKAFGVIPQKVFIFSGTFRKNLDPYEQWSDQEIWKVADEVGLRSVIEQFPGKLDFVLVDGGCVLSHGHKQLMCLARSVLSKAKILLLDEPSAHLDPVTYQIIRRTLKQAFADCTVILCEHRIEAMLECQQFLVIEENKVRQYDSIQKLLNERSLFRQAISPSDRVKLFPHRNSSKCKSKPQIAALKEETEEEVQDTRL
T1 sequence (P13569 whole entry): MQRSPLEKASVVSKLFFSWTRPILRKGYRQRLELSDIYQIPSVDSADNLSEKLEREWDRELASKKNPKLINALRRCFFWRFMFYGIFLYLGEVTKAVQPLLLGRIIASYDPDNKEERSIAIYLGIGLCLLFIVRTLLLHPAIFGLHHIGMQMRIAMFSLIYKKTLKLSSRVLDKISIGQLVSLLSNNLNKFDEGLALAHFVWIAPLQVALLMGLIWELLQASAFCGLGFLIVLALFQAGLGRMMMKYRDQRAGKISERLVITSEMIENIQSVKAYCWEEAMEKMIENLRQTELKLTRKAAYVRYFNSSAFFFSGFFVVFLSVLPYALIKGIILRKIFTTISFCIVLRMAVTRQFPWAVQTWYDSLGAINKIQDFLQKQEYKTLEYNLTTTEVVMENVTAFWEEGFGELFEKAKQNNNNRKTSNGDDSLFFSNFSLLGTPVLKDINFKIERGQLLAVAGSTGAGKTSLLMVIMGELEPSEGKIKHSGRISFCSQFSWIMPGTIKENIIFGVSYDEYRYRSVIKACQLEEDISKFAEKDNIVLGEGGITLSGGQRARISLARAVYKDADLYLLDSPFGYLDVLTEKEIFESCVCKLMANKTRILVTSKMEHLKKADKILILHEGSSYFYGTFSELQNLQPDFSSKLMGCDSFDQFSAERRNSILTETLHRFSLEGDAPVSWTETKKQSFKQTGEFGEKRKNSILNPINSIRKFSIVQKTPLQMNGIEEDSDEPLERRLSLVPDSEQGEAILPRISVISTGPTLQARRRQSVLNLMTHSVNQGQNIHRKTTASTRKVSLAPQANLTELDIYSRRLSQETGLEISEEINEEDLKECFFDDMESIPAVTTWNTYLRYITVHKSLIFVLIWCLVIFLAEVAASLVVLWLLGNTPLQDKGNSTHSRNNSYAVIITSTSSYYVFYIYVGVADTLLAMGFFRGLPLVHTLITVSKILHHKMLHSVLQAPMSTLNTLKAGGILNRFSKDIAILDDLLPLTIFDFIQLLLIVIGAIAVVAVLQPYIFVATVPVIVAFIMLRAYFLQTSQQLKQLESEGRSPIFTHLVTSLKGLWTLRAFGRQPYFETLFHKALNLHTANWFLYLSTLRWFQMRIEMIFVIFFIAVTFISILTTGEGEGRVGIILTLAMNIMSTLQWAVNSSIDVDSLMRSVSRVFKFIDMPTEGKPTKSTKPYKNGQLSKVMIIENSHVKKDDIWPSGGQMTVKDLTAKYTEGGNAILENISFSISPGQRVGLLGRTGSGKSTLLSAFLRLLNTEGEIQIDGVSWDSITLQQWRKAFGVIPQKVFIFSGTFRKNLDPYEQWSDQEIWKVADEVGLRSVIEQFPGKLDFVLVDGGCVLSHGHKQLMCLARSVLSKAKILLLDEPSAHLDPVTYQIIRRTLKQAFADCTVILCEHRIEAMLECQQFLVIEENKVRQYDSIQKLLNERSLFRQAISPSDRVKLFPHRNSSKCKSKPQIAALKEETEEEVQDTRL
T2 sequence (P13569 whole entry G551D): as the sequence (P13569 whole entry) above, with G551D counted along it
T4 sequence (P13569 with tags, fused parts or gaps S660A/DEL708-835): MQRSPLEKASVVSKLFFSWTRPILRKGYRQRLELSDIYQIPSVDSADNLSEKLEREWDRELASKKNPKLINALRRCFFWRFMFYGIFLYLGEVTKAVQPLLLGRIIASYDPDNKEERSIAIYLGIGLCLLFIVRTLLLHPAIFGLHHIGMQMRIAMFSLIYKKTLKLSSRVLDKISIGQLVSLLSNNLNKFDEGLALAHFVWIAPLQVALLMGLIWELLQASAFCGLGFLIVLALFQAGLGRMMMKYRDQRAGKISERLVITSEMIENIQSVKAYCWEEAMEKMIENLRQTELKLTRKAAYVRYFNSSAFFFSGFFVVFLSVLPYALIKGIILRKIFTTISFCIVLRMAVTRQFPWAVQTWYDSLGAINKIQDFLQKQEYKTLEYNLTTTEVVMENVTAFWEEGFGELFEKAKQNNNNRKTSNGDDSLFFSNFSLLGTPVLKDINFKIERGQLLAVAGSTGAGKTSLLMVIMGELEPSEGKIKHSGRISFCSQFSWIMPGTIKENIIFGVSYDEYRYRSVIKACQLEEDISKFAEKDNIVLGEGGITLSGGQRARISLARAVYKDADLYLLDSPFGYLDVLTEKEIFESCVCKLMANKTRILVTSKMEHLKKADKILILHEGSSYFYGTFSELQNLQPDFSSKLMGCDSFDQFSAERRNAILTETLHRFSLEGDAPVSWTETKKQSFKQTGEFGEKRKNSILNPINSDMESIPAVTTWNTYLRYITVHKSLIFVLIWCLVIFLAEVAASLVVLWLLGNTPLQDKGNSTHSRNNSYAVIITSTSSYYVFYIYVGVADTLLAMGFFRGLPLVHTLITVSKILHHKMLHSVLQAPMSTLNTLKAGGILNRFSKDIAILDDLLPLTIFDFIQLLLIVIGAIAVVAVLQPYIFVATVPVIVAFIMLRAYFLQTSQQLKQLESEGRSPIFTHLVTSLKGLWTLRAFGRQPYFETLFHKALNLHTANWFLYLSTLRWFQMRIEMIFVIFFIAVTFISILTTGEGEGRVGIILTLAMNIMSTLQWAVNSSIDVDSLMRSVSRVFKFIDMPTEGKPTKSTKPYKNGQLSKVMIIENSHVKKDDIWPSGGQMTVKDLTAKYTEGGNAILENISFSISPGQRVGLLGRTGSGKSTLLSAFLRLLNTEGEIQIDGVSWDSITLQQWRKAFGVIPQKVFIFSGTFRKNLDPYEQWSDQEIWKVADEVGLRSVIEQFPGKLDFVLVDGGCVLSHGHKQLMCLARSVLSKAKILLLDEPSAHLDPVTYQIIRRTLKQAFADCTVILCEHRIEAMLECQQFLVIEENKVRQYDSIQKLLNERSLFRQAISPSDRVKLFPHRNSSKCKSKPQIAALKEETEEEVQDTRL

stimulation of the activity of the wild-type channel (wild-type CFTR [1]): 1.5-2 fold | effect on G551D-CFTR activity (G551D-CFTR): only modestly stimulated | effect on transepithelial currents without cAMP agonist (ΔF508-CFTR; 120 nM to 12 μM): stimulated the transepithelial currents | stimulated transepithelial current with H89 (ΔF508-CFTR; prior treatment with H89 100 μM, n=4, monolayer type (wild-type or ΔF508) not stated): 5.5+/−1.3 μA/cm^2 | stimulated transepithelial current without H89 (ΔF508-CFTR; −H89, n=4, monolayer type (wild-type or ΔF508) not stated): 23.3+/−2.0 μA/cm^2 | effect on currents in the absence of PKA (AR-S660A-CFTR): markedly stimulate | effect on transepithelial currents without cAMP agonist (wild-type CFTR [2]): stimulated the transepithelial currents | solubility relative to NPPB [3]: less soluble
Structure (SMILES): NC(=O)c1cc([N+](=O)[O-])ccc1NCCCc1ccccc1 [NPPB-Am]
potentiation of the forskolin effect on ΔF508-CFTR transepithelial currents (ΔF508-CFTR; 1 μM compound with 1 μM forskolin, N=8-12): markedly potentiated the effect of forskolin
